Reference: PubChem BioAssay (NCI)
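These data come from cells grown in 96-well plates and exposed to compound for 48 hours at five concentrations. At the TGI there is no net growth.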

Assays:
Experiment in all cases: NCI tumour cell line growth inhibition, 48 h
[1] = system: COLO 205 colon
[2] = system: HCT-116 colon
[3] = system: HT29 colon
[4] = system: M14 melanoma
[5] = system: NCI-H23 lung
[6] = system: RXF 393 renal
[7] = system: SK-MEL-5 melanoma
[8] = system: SN12C renal
[9] = system: HOP-62 NSCLC
[10] = system: OVCAR-3 ovarian

SMILES | TGI [1] [µM] | TGI [2] [µM] | TGI [3] [µM] | TGI [4] [µM] | TGI [5] [µM] | TGI [6] [µM] | TGI [7] [µM] | TGI [8] [µM] | TGI [9] [µM] | TGI [10] [µM]
Clc1nc(Nc2nc3ccccc3[nH]2)nc(Cl)c1Cc1ccccc1 | > 100 | > 100 | > 100 | > 100 | > 100 | > 100 | > 100 | > 100 |  | 
Cc1ccnc(NC(=S)Nc2cccc(Cl)c2)c1 | > 100 | > 100 | > 100 | > 100 |  | > 100 | > 100 | > 100 | > 100 | > 100
CC(C)=Nn1cnc(C(=N)C#N)c1N | > 100 | > 100 | > 100 | > 100 | > 100 | > 100 |  |  | > 100 | > 100
Cc1ccc(SC[C@@]2(C(F)F)NC(=O)NC2=O)cc1 | > 100 | > 100 | > 100 | > 100 | > 100 | > 100 | > 100 |  | > 100 | > 100
CCC(=O)NC(OCC1(CC)COC1)(C(F)(F)F)C(F)(F)F |  | > 100 | > 100 | > 100 | > 100 | > 100 |  | > 100 | > 100 | > 100
COc1cc(OC)c2c(O)c(S(=O)(=O)c3ccc(C)cc3)c(=O)oc2c1 | > 100 | > 100 | > 100 | > 100 | > 100 | > 100 | > 100 | > 100 |  | > 100
C#CCSc1nc(N)c2ncn(C3OC(COP(=O)(O)O)C(O)C3O)c2n1 (configuration not stated) | > 239 | > 239 | > 239 | > 239 | > 239 |  | > 239 | > 239 | > 239 | > 239
N#Cc1c(Nc2nc3ccccc3s2)c2ccccc2n2c1nc1ccccc12 | > 100 | > 100 | > 100 | > 100 | > 100 |  | > 100 | > 100 | > 100 | > 100
CSc1nc(C#N)c(N)n1C | > 100 | > 100 |  | > 100 | > 100 | > 100 | > 100 | > 100 | > 100 | > 100
COc1cccc(NC(=O)CC(=O)NNCC(=O)Nc2nnc(-c3ccc(N(CCC#N)S(=O)(=O)c4ccccc4)cc3)s2)c1 | > 100 | > 100 |  |  | > 100 | > 100 | > 100 | > 100 | > 100 | > 100
Cc1nn(C)c2nc3ccc(Cl)cc3c(-c3ccccc3)c12 | > 100 | > 100 | > 100 | > 100 | > 100 | > 100 |  | > 100 | > 100 | > 100
CCCCc1ccc(-n2sc3ncccc3c2=O)cc1 | 33.3 | 26.3 | 33.1 | 26.8 | 41.9 |  | 26.4 | 37.7 | 36.2 | 42.5
COc1ccc2c(c1OC)C(=O)O[C@@H]2[C@H]1c2cc3c(cc2CCN1C)OCO3 | > 100 | > 100 | > 100 | > 100 | > 100 |  | > 100 | > 100 | > 100 | > 100
COc1cc(OC)cc(-n2c(N)c(-c3nc4ccccc4n3C)c3ccc([N+](=O)[O-])cc3c2=O)c1 | > 100 | > 100 | > 100 |  | > 100 |  | > 100 | > 100 |  | 
COc1ccc(/C(=N/Nc2nc3ccccc3[nH]2)C(=O)O)cc1 | > 100 | > 100 | > 100 | > 100 | > 100 |  | > 100 | > 100 | > 100 | > 100
CC(=O)Nc1ccc(C(=O)N2N=C(C)/C(=C/c3cccc([N+](=O)[O-])c3)C2=O)cc1 | > 100 | > 100 | > 100 | > 100 | > 100 |  | > 100 | > 100 | > 100 | > 100
C=CCC1(CC)C(=O)NC(=O)NC1=O | > 100 | > 100 |  | > 100 | > 100 | > 100 |  | > 100 | > 100 | > 100
C=CC(C)(C)c1cc([C@@H]2COc3cc(O)ccc3C2=O)c(O)c(O)c1OC | 63 | 32.6 | 47.4 | 46.5 | 34 | 21.1 | 41.1 | 37.6 |  | 29.3
Cc1cc(S(=O)(=O)Nc2nc3ccccc3n2-c2ccccc2)c(S)cc1Cl | > 100 | > 100 |  | > 100 |  | > 100 | > 100 |  |  | > 100
CCN1CCCC(Nc2cc(C)nc(/N=C(/N)Nc3ccc(Cl)c(Cl)c3)n2)C1 (configuration not stated) | 2.95 | 2.76 | 15.7 | 0.684 | 4.81 |  | 5.35 | 6.64 | 2.88 | 3.59
CCOC(=O)c1c(NCc2ccccc2)n(-c2ccccc2)c(=S)n(-c2ccccc2)c1=O | > 100 |  | > 100 | > 100 | > 100 | > 100 | > 100 | > 100 |  | > 100
COC(=O)/C=C/c1cc(OC)c2oc(-c3ccc(OC)c(OC)c3)c(C(=O)OC)c2c1 | > 100 |  | > 100 | > 100 | > 100 |  | > 100 | > 100 |  | > 100
Oc1ccc(Cl)cc1C1=N/C(=N\C/N=C2\N=C(c3cc(Cl)ccc3O)CC(c3ccccc3)N2)NC(c2ccccc2)C1 (configuration not stated) | > 100 | > 100 | > 100 | > 100 | > 100 | > 100 | > 100 |  | > 100 | > 100
Cc1c(C#N)c2nnn(-c3ccccc3)c(=O)n2c1-c1ccccc1 | 3.41 | 13.2 |  | > 35.6 | > 77.6 | > 24.2 | 16.5 | > 56.8 | > 100 | 16.2
